Test results published in patent publication US6875760B2 (Novo Nordisk A/S, priority 1999, dated 2005).
pIC50: −log10 of the molar value.

The compounds below were run against T1, human glucagon receptor (Homo sapiens, UniProt P47871) (assay: Glucagon Binding Assay (III)). Conditions: BHK cell membranes, WGA SPA beads, 125I-glucagon; read-out: Glu Bd Assay (III) IC50.
T1 construct: expressed in transfected cells; host or cells: BHK (baby hamster kidney) cells
T1 sequence (P47871 26-477): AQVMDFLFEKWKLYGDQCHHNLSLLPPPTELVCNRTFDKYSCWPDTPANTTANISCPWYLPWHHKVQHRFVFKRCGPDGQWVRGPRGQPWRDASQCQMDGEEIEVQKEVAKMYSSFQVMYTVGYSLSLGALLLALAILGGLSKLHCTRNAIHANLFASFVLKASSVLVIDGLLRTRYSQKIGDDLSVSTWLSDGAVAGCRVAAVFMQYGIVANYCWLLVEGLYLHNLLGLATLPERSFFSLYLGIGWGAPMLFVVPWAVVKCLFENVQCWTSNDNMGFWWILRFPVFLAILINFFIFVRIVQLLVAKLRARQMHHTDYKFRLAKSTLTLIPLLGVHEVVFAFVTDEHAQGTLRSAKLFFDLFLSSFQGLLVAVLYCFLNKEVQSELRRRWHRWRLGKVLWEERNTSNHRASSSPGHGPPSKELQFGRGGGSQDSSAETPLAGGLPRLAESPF
Outline: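 Membranes from BHK cells transfected with the human receptor, prepared at 4 °C, were used in a WGA-bead scintillation proximity binding format. Plates were shaken for 4 hours, left to settle 8–48 hours and then counted. Non-specific binding was defined with 500 nM glucagon.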
`O=C(Nc1nn[nH]n1)c1ccc(CN(C(=O)/C=C/c2c(Cl)cccc2Cl)c2ccc(C3CCCCC3)cc2)cc1` [Example 480, 4-({(4-Cyclohexylphenyl)-[3-(2,6-dichlorophenyl)acryloyl]amino}methyl)-N-(2H-tetrazol-5-yl)benzamide] showed a pIC50 of 6.56. For `O=C(Nc1nn[nH]n1)c1ccc(CN(C(=O)c2cccc([N+](=O)[O-])c2)c2ccc(C3CCCCC3)cc2)cc1` [Example 481, 4-{[(4-Cyclohexylphenyl)-(3-nitrobenzoyl)amino]methyl}-N-(2H-tetrazol-5-yl)benzamide], the pIC50 was 5.70. `CSc1cccc(O)c1C(=O)N(Cc1ccc(C(=O)Nc2nn[nH]n2)cc1)c1ccc(C2CCCCC2)cc1` [Example 482, 4-{[(4-Cyclohexylphenyl)-(2-hydroxy-6-methylsulfanylbenzoyl)amino]methyl}-N-(2H-tetrazol-5-yl)benzamide] showed a pIC50 of 6.52. Work on `CS(=O)(=O)c1ccc(C(=O)N(Cc2ccc(C(=O)Nc3nn[nH]n3)cc2)c2ccc(C3CCCCC3)cc2)cc1` [Example 483, 4-{[(4-Cyclohexylphenyl)-(4-methylsulfonylbenzoyl)amino]methyl}-N-(2H-tetrazol-5-yl)benzamide] yielded a pIC50 of 5.95. `O=C(Nc1nn[nH]n1)c1ccc(CN(C(=O)c2ccc(C3CCCCC3)cc2)c2ccc(C3CCCCC3)cc2)cc1` [Example 484, 4-{[(4-Cyclohexylphenyl)-(4-cyclohexylbenzoyl)amino]methyl}-N-(2H-tetrazol-5-yl)benzamide] showed a pIC50 of 6.30. Compound `O=C(Nc1nn[nH]n1)c1ccc(CN(C(=O)c2ccc(OC(F)(F)F)cc2)c2ccc(C3CCCCC3)cc2)cc1` [Example 485, 4-{[(4-Cyclohexylphenyl)-(4-triflourmethoxybenzoyl)amino]methyl}-N-(2H-tetrazol-5-yl)benzamide] has a pIC50 of 6.09. `CC(C)(C)C1CCC(N(Cc2ccc(C(=O)Nc3nn[nH]n3)cc2)C(=O)c2ccc(-c3ccccc3)cc2)CC1` (stereo not shown) [Example 487, Biphenyl-4-carboxylic acid (4-tert-butylcyclohexyl)-[4-(2H-tetrazol-5-ylcarbamoyl)benzyl]amide] was tested, and the pIC50 was 6.28. Work on `CC(C)(C)C1CCC(N(Cc2ccc(C(=O)Nc3nn[nH]n3)cc2)C(=O)c2ccc(C3CCCCC3)cc2)CC1` (stereo not shown) [Example 488, 4-{[(4-tert-Butylcyclohexyl)-(4-cyclohexylbenzoyl)amino]methyl}-N-(2H-tetrazol-5-yl)benzamide] yielded a pIC50 of 7.01. Compound `CC(C)(C)C1CCC(N(Cc2ccc(C(=O)Nc3nn[nH]n3)cc2)C(=O)c2ccc(OC(F)(F)F)cc2)CC1` (stereo not shown) [Example 489, 4-{[(4-tert-Butylcyclohexyl)-(4-triflourmethoxybenzoyl)amino]methyl}-N-(2H-tetrazol-5-yl)benzamide] has a pIC50 of 6.82. With `CC(C)(C)C1CCC(N(Cc2ccc(C(=O)Nc3nn[nH]n3)cc2)C(=O)c2cc3cc(Cl)ccc3o2)CC1` (stereo not shown) [Example 490, 5-Chlorobenzofuran-2-carboxylic acid (4-tert-butylcyclohexyl)-[4-(2H-tetrazol-5-ylcarbamoyl)benzyl]amide] the pIC50 was 6.87. Compound `CC(Oc1ccc(Cl)cc1)C(=O)N(Cc1ccc(C(=O)Nc2nn[nH]n2)cc1)c1ccc(C2CCCCC2)cc1` (stereo not shown) [Example 491, 4-{[[2-(4-Chlorophenoxy)propionyl]-(4-cyclohexylphenyl)amino]methyl}-N-(2H-tetrazol-5-yl)benzamide] has a pIC50 of 6.58. With `O=C(Nc1nn[nH]n1)c1ccc(CN(C(=O)Cc2cccc(OC(F)(F)F)c2)c2ccc(C3CCCCC3)cc2)cc1` [Example 492, 4-({(4-Cyclohexylphenyl)-[2-(3-trifluoromethoxyphenyl)acetyl]amino}methyl)-N-(2H-tetrazol-5-yl)benzamide] the pIC50 was 6.84. With `CC(Oc1ccc(OC(F)(F)F)cc1)C(=O)N(Cc1ccc(C(=O)Nc2nn[nH]n2)cc1)c1ccc(C2CCCCC2)cc1` (stereo not shown) [Example 493] the pIC50 was 6.06. In the case of `O=C(Nc1nn[nH]n1)c1ccc(CN(C(=O)c2cccc(Cl)c2)c2ccc(C3=CCCCC3)cc2)cc1` [Example 495, 4-({(4-Cyclohex-1-enylphenyl)-(3-chlorobenzoyl)amino}methyl)-N-(2H-tetrazol-5-yl)benzamide], the pIC50 was 6.51. `O=C(Nc1nn[nH]n1)c1ccc(CN(C(=O)Cc2ccc(F)cc2F)c2ccc(C3CCCCC3)cc2)cc1` [Example 496, 4-({(4-Cyclohexylphenyl)-[2-(2,4-difluorophenyl)acetyl]amino}methyl)-N-(2H-tetrazol-5-yl)benzamide] was tested, and the pIC50 was 6.25. `O=C(Nc1nn[nH]n1)c1ccc(CN(C(=O)Cc2ccc(-c3ccccc3)cc2)c2ccc(C3CCCCC3)cc2)cc1` [Example 497, 4-{[(2-Biphenyl-4-yl-acetyl)-(4-cyclohexylphenyl)amino]methyl}-N-(2H-tetrazol-5-yl)benzamide] gave a pIC50 of 6.23. `CC(Oc1cccc(Cl)c1)C(=O)N(Cc1ccc(C(=O)Nc2nn[nH]n2)cc1)c1ccc(C2CCCCC2)cc1` (stereo not shown) [Example 498, 4-{[[2-(3-Chlorophenoxy)propionyl]-(4-cyclohexylphenyl)amino]methyl}-N-(2H-tetrazol-5-yl)benzamide] was tested, and the pIC50 was 6.21. With `O=C(Nc1nn[nH]n1)c1ccc(CN(C(=O)Cc2ccc3ccccc3c2)c2ccc(C3CCCCC3)cc2)cc1` [Example 499, 4-{[(4-Cyclohexylphenyl)-(2-naphth-2-ylacetyl)amino]methyl}-N-(2H-tetrazol-5-yl)benzamide] the pIC50 was 6.87. Compound `O=C(Nc1nn[nH]n1)c1ccc(CN(C(=O)/C=C/c2ccccc2Cl)c2ccc(C3CCCCC3)cc2)cc1` [Example 500, 4-{[[3-(2-Chlorophenyl)acryloyl]-(4-cyclohexylphenyl)amino]methyl}-N-(2H-tetrazol-5-yl)benzamide] has a pIC50 of 6.85. `O=C(Nc1nn[nH]n1)c1ccc(CN(C(=O)/C=C/c2ccccc2Br)c2ccc(C3CCCCC3)cc2)cc1` [Example 501, 4-{[[3-(2-Bromophenyl)acryloyl]-(4-cyclohexylphenyl)amino]methyl}-N-(2H-tetrazol-5-yl)benzamide] gave a pIC50 of 6.66. In the case of `CC(C)(C)C1CCC(N(Cc2ccc(C(=O)Nc3nn[nH]n3)cc2)C(=O)Cc2ccc(OC(F)(F)F)cc2)CC1` (stereo not shown) [Example 502, 4-({(4-tert-Butylcyclohexyl)-[2-(4-trifluoromethoxyphenyl)acetyl]amino}methyl)-N-(2H-tetrazol-5-yl)benzamide], the pIC50 was 7.55. Compound `CC(C)(C)C1CCC(N(Cc2ccc(C(=O)Nc3nn[nH]n3)cc2)C(=O)/C=C/c2c(Cl)cccc2Cl)CC1` (stereo not shown) [Example 503, 4-({(4-tert-Butylcyclohexyl)-[3-(2,6-dichlorophenyl)acryloyl]amino}methyl)-N-(2H-tetrazol-5-yl)benzamide] has a pIC50 of 7.03. `O=C(O)CCNC(=O)c1ccc(CN(CC(c2ccccc2)c2ccccc2)C(=O)Cc2ccc(OC(F)(F)F)cc2)cc1` [Example 504, 3-[4-({(2,2-Diphenylethyl)-[2-(4-trifluoromethoxyphenyl)acetyl]amino}methyl)benzoylamino]propionic acid] gave a pIC50 of 6.63. In the case of `O=C(O)CCNC(=O)c1ccc(CN(CC(c2ccccc2)c2ccccc2)C(=O)/C=C/c2c(Cl)cccc2Cl)cc1` [Example 505, 3-(4-{[[3-(2,6-Dichlorophenyl)acryloyl]-(2,2-diphenylethyl)amino]methyl}benzoylamino)propionic acid], the pIC50 was 6.35. Work on `CC(C)(C)C1CCC(N(Cc2ccc(C(=O)NCCC(=O)O)cc2)C(=O)Cc2ccc(OC(F)(F)F)cc2)CC1` (stereo not shown) [Example 506, 3-[4-({(4-tert-Butylcyclohexyl)-[2-(4-trifluoromethoxyphenyl)acetyl]amino}methyl)benzoylamino]propionic acid] yielded a pIC50 of 6.97.
